In PubChem BioAssay (NCI) one finds GI50 and TGI data, which are given here for 16 compounds.

Among the test systems are A549 NSCLC; CCRF-CEM leukemia; HL-60(TB) leukemia; IGROV1 ovarian; MDA-MB-435; NCI-H226 lung; OVCAR-4 ovarian; SK-OV-3 ovarian; SNB-19 CNS; MALME-3M melanoma.
What all share (assay): DTP human tumour cell line panel, 48 h

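Compound exposure: 48 hours, 5 concentrations, 96-well plates. GI50 = concentration required for 50% inhibition of growth. TGI: concentration producing complete growth inhibition.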

Turning to `CCC(CC)c1nc(Nc2ccc(C(=O)OC)cc2)c2ccccc2n1`, the GI50 is 10.2 µM in the assay with A549 NSCLC; 6.64 µM in the assay with CCRF-CEM leukemia; 8.17 µM with HL-60(TB) leukemia; 11.6 µM in the assay on IGROV1 ovarian; over 18.3 µM with MDA-MB-435; 7.93 µM in the assay on NCI-H226 lung. Moreover, the GI50 in the assay with OVCAR-4 ovarian is 7.45 µM; in the assay with SK-OV-3 ovarian, 9.54 µM; in the assay with SNB-19 CNS it was 8.07 µM. For the same compound, the TGI in the assay on A549 NSCLC is 27.2 µM; with CCRF-CEM leukemia, 48.9 µM; with HL-60(TB) leukemia, 26 µM; in the assay with IGROV1 ovarian, 28.5 µM; in the assay with MDA-MB-435, over 25.6 µM; with NCI-H226 lung, 22.8 µM. The TGI amounted to 18.6 µM in the assay on OVCAR-4 ovarian, 19 µM in the assay on SK-OV-3 ovarian and 15.2 µM in the assay on SNB-19 CNS.
`NCCCNc1nc2ccccc2c2c(=O)c3cc(F)cc(F)c3sc12`: the GI50 in the assay on HL-60(TB) leukemia is 2.08 µM; with MALME-3M melanoma it was 1.62 µM; in the assay with MDA-MB-435 it was 1.63 µM; with NCI-H226 lung it was 10.9 µM; in the assay on OVCAR-4 ovarian, 1.75 µM; in the assay with SNB-19 CNS, 1.7 µM. The TGI in the assay on HL-60(TB) leukemia stood at 4.2 µM; in the assay on MALME-3M melanoma, 3.21 µM; with MDA-MB-435, 3.02 µM; with NCI-H226 lung, 29.1 µM; in the assay with OVCAR-4 ovarian, 3.61 µM; with SNB-19 CNS, 3.23 µM.
As for `COc1cc(/C=C2\C[C@H]3[C@@H]4CC=C5C[C@@H](O)CC[C@]5(C)[C@H]4CC[C@]3(C)[C@H]2O)ccc1OCCN1CCCC1`, the GI50 was 10.9 µM with A549 NSCLC; 9.96 µM in the assay on HL-60(TB) leukemia; 17.5 µM with IGROV1 ovarian; 10.7 µM in the assay on MDA-MB-435; 9.55 µM in the assay with NCI-H226 lung; 11.8 µM with SNB-19 CNS. The TGI in the assay with A549 NSCLC was 21.6 µM; in the assay on HL-60(TB) leukemia, 19 µM; in the assay on IGROV1 ovarian it was over 50 µM; in the assay with MDA-MB-435, 28.2 µM; with NCI-H226 lung, 22.3 µM; with SNB-19 CNS, 31.3 µM.
Consider `CO/C=C/C(=O)c1cc2cnc3c(=N)cc(NC(=O)C(C)C)c([nH]1)c23`, for which the GI50 was 1.52 µM in the assay on A549 NSCLC; 0.0184 µM in the assay on CCRF-CEM leukemia; 0.032 µM with HL-60(TB) leukemia; 0.0187 µM with IGROV1 ovarian; 0.0852 µM in the assay with MDA-MB-435; 0.106 µM in the assay with NCI-H226 lung. In addition, the GI50 is 0.0637 µM in the assay with OVCAR-4 ovarian, 0.146 µM with SK-OV-3 ovarian and 0.148 µM in the assay on SNB-19 CNS. The TGI in the assay on A549 NSCLC was 15.1 µM; with CCRF-CEM leukemia it was 4.94 µM; in the assay on HL-60(TB) leukemia, 0.295 µM; in the assay on IGROV1 ovarian, 0.138 µM; in the assay with MDA-MB-435, 0.836 µM; with NCI-H226 lung, 1.26 µM. Besides, the TGI in the assay on OVCAR-4 ovarian was 0.746 µM; in the assay with SK-OV-3 ovarian, 0.873 µM; in the assay on SNB-19 CNS it was 1.08 µM.
For the compound `O=C1c2[nH]cc(CNC3CN4CCC3CC4)c2C(=O)c2c1c(O)c1ccccc1c2O` (stereo not drawn), the GI50 in the assay with A549 NSCLC is 6.31 µM; in the assay with CCRF-CEM leukemia, 0.141 µM; with IGROV1 ovarian, 1.33 µM; with MALME-3M melanoma, 2.78 µM; in the assay with MDA-MB-435, 1.4 µM; in the assay on NCI-H226 lung, 16.3 µM. Further, the GI50 in the assay on OVCAR-4 ovarian was 16.3 µM; in the assay with SK-OV-3 ovarian, 3.71 µM; in the assay with SNB-19 CNS, 2.92 µM. The TGI turned out to be 47.4 µM in the assay with A549 NSCLC; 1.56 µM with CCRF-CEM leukemia; 3.84 µM with IGROV1 ovarian; 7.14 µM with MALME-3M melanoma; 2.76 µM in the assay with MDA-MB-435; 41.4 µM in the assay on NCI-H226 lung. Besides, the TGI in the assay with OVCAR-4 ovarian came out at 55.7 µM; with SK-OV-3 ovarian it was 20.1 µM; with SNB-19 CNS, 12.4 µM.
Regarding `O=C(c1ccco1)c1nc2cc(C(F)(F)F)ccc2nc1C(F)(F)F`, the GI50 is over 100 µM with A549 NSCLC; 22.2 µM in the assay on HL-60(TB) leukemia; over 100 µM in the assay on IGROV1 ovarian; over 100 µM in the assay on MALME-3M melanoma; over 100 µM in the assay with MDA-MB-435; 56.4 µM in the assay with OVCAR-4 ovarian. In addition, the GI50 in the assay on SK-OV-3 ovarian and in the assay with SNB-19 CNS was over 100 µM in each case. Moreover, the TGI in the assay with A549 NSCLC is over 100 µM; in the assay on HL-60(TB) leukemia, 69.2 µM; with IGROV1 ovarian, over 100 µM; in the assay on MALME-3M melanoma, over 100 µM; in the assay on MDA-MB-435 it was over 100 µM; in the assay with OVCAR-4 ovarian it was over 100 µM. Further, the TGI in the assay with SK-OV-3 ovarian and in the assay with SNB-19 CNS was over 100 µM in each case.
In the case of `OC(c1cc(-c2cccc(Cl)c2)nc2ccccc12)C1CCCCN1` (stereo not drawn), the GI50 was 1.7 µM with A549 NSCLC; 2.08 µM with CCRF-CEM leukemia; 1.72 µM in the assay with HL-60(TB) leukemia; 1.69 µM with IGROV1 ovarian; 2.05 µM with MALME-3M melanoma; 1.63 µM in the assay with MDA-MB-435. The GI50 with SK-OV-3 ovarian is 3.54 µM; in the assay on SNB-19 CNS it was 1.95 µM. In addition, the TGI in the assay with A549 NSCLC was 3.1 µM; with CCRF-CEM leukemia it was 4.74 µM; in the assay with HL-60(TB) leukemia it was 4.22 µM; in the assay on IGROV1 ovarian, 3.21 µM; in the assay with MALME-3M melanoma, 3.77 µM; with MDA-MB-435 it was 3.15 µM. Besides, the TGI came out at 12.2 µM in the assay on SK-OV-3 ovarian and 3.95 µM with SNB-19 CNS.
On to `COC(=O)[C@@H](C)C[C@H](Cc1cn(C)c2ccccc12)NC(=O)c1csc([C@@H](C[C@H](C(C)C)N(C)C(=O)[C@@H](NC(=O)[C@H]2CCCCN2C)C(C)C)OC(C)=O)n1`, for which the GI50 is 0.0338 µM in the assay with A549 NSCLC; 0.00779 µM with CCRF-CEM leukemia; 0.00469 µM in the assay with HL-60(TB) leukemia; 0.0289 µM in the assay with IGROV1 ovarian; 0.00215 µM in the assay on MDA-MB-435; 0.0983 µM in the assay with NCI-H226 lung. For the same compound, the GI50 is 0.575 µM in the assay on OVCAR-4 ovarian, 0.0602 µM in the assay on SK-OV-3 ovarian and 0.00883 µM with SNB-19 CNS. For the same compound, the TGI is over 16.7 µM in the assay on A549 NSCLC; over 16.7 µM with CCRF-CEM leukemia; 0.0194 µM in the assay with HL-60(TB) leukemia; over 16.7 µM in the assay on IGROV1 ovarian; 0.00856 µM in the assay on MDA-MB-435; over 12 µM in the assay on NCI-H226 lung. The TGI in the assay with OVCAR-4 ovarian, with SK-OV-3 ovarian and in the assay with SNB-19 CNS was over 16.7 µM in each case.
With `COC(=O)C1=Cc2cc(OC)c(OC)c(OC)c2[C@H](c2cc(OC)c(OC)c(OC)c2)C1C(=O)OC` (stereo partly drawn), the concentration for total growth inhibition (TGI) in the assay on A549 NSCLC, with CCRF-CEM leukemia, in the assay with HL-60(TB) leukemia, in the assay with IGROV1 ovarian, in the assay on MALME-3M melanoma and with NCI-H226 lung was over 100 µM each time. The TGI in the assay on OVCAR-4 ovarian, in the assay with SK-OV-3 ovarian and with SNB-19 CNS was over 100 µM each time.
Turning to `COC(=O)CCC(NC(=S)N/N=C/c1ccccn1)C(=O)OC` (stereo not drawn), the TGI in the assay on A549 NSCLC, with CCRF-CEM leukemia, in the assay on HL-60(TB) leukemia, with IGROV1 ovarian, in the assay on MALME-3M melanoma and with NCI-H226 lung was over 100 µM throughout. Further, the TGI with OVCAR-4 ovarian, with SK-OV-3 ovarian and in the assay with SNB-19 CNS was over 100 µM each time.
As for `C[C@]12CC[C@@H]3c4cc(OC(F)F)c(O)cc4CC[C@H]3[C@@H]1CC[C@@H]2OS(N)(=O)=O`, the GI50 was 0.968 µM in the assay on A549 NSCLC; 0.393 µM with CCRF-CEM leukemia; 0.313 µM in the assay with HL-60(TB) leukemia; 0.687 µM in the assay with IGROV1 ovarian; 0.348 µM in the assay with MALME-3M melanoma; 6.64 µM in the assay on NCI-H226 lung. In addition, the GI50 is 15.8 µM in the assay on OVCAR-4 ovarian, 2.77 µM with SK-OV-3 ovarian and 0.551 µM in the assay on SNB-19 CNS. Besides, the TGI with A549 NSCLC was over 100 µM; with CCRF-CEM leukemia, over 100 µM; in the assay with HL-60(TB) leukemia it was 2.8 µM; in the assay with IGROV1 ovarian, over 100 µM; in the assay on MALME-3M melanoma, 27.4 µM; in the assay with NCI-H226 lung, 60.5 µM. The TGI is 97.6 µM in the assay with OVCAR-4 ovarian, 98 µM with SK-OV-3 ovarian and over 100 µM in the assay on SNB-19 CNS.
On to `O=C1/C(=N\O)c2ccccc2S1(=O)=O`, for which the TGI in the assay on A549 NSCLC, in the assay with CCRF-CEM leukemia, in the assay on HL-60(TB) leukemia, with IGROV1 ovarian, with MALME-3M melanoma and with NCI-H226 lung was over 100 µM throughout. Besides, the TGI in the assay on OVCAR-4 ovarian, with SK-OV-3 ovarian and with SNB-19 CNS was over 100 µM throughout.
Take `C=C=C(C(=O)OC)S(=O)c1ccccc1[N+](=O)[O-]` (stereo not drawn): the TGI in the assay with A549 NSCLC was over 100 µM; in the assay with CCRF-CEM leukemia it was 77 µM; in the assay with HL-60(TB) leukemia, over 100 µM; in the assay on IGROV1 ovarian, over 100 µM; in the assay with MALME-3M melanoma, over 100 µM; with NCI-H226 lung, over 100 µM. Moreover, the TGI in the assay on OVCAR-4 ovarian, in the assay with SK-OV-3 ovarian and in the assay with SNB-19 CNS was over 100 µM each time.
`O=C(O)/C=C/C(=O)N1Cc2cc3ccccc3nc2C1`: the TGI in the assay with A549 NSCLC, in the assay with HL-60(TB) leukemia, in the assay on IGROV1 ovarian, in the assay on MALME-3M melanoma, in the assay on MDA-MB-435 and in the assay on NCI-H226 lung was over 100 µM in each case. Besides, the TGI in the assay with SK-OV-3 ovarian and in the assay with SNB-19 CNS was over 100 µM in each case.
For `CC(=O)Nc1ccccc1-c1nc2ccccc2nc1C`, the TGI in the assay on A549 NSCLC, in the assay on CCRF-CEM leukemia, in the assay with HL-60(TB) leukemia, in the assay with IGROV1 ovarian, in the assay with MALME-3M melanoma and in the assay on NCI-H226 lung was over 100 µM throughout. Also, the TGI in the assay on OVCAR-4 ovarian, with SK-OV-3 ovarian and in the assay on SNB-19 CNS was over 100 µM throughout.
In the case of `C=C1CC2CCCC12C=O` (stereo not drawn), the TGI in the assay on A549 NSCLC, in the assay on CCRF-CEM leukemia, with HL-60(TB) leukemia, in the assay with IGROV1 ovarian, in the assay with MALME-3M melanoma and in the assay with MDA-MB-435 was over 10 µM each time. Further, the TGI in the assay on OVCAR-4 ovarian, with SK-OV-3 ovarian and in the assay on SNB-19 CNS was over 10 µM throughout.

In general, GI50 refers to the concentration that inhibits growth by half. The TGI is the concentration giving total growth inhibition.
